Results from patent EP3974434B1, “MACROLIDE DERIVATIVES, PREPARATION METHOD AND APPLICATION THEREOF” (Zhejiang Hisun Pharmaceutical Co., Ltd., priority 2019, dated 2020).

Assays:
[1] = tested on: H2228 (human lung cancer cells); assay: Cell proliferation assay (CellTiter-Glo), H2228; type: cell-based; details: NCI-H2228, 72 hours, EML4-ALK fusion
Excerpt: The following method was used to determine the effects of the compounds of the present invention on cell proliferation. H2228 cells (containing EML4-ALK fusion) were purchased from Cell Resource Center of Shanghai Institutes for Biological Sciences, Chinese Academy of Sciences. KARPAS-299 cells (containing NPM-ALK fusion) were purchased from Nanjing COBIOER Biotechnology Co., Ltd. The above two cell lines were used to determine the inhibition of the compounds on cell activities. The cells were cultured in an RPMI 1640 medium containing 10% fetal bovine serum, 100 U penicillin, 100 µg/mL streptomycin, and 1 mM Sodium Pyruvate. The cells were cultured in a 5% CO2 incubator at 37°C. The activity of the cells was determined by CellTiter-Glo® Luminescent Cell Viability Assay kit (Promega, article number: G7573).
The experimental methods were operated according to the steps in the kit instruction, and were briefly described as follows: a test compound was first dissolved in DMSO to prepare a storage solution, and then diluted in gradient with the corresponding cell culture medium to prepare a test sample. […] After the culture, 50 µL of CellTiter-Glo detection solution was added to each well, shaken for 5 minutes, and then stood for 10 minutes, and the luminescence values of each well were read on the microplate reader using a Luminance mode. […]

ALK(G1202R) = biological target: T1, ALK(G1202R) (Homo sapiens, UniProt Q9UM73, G1202R); assay: HTRF KinEASE-TK kinase activity inhibition assay, ALK(G1202R); type: biochemical; details: ATP 10 µM
T1 construct: purchased SignalChem A19-12HG-10
T1 sequence (Q9UM73 19-1620 G1202R): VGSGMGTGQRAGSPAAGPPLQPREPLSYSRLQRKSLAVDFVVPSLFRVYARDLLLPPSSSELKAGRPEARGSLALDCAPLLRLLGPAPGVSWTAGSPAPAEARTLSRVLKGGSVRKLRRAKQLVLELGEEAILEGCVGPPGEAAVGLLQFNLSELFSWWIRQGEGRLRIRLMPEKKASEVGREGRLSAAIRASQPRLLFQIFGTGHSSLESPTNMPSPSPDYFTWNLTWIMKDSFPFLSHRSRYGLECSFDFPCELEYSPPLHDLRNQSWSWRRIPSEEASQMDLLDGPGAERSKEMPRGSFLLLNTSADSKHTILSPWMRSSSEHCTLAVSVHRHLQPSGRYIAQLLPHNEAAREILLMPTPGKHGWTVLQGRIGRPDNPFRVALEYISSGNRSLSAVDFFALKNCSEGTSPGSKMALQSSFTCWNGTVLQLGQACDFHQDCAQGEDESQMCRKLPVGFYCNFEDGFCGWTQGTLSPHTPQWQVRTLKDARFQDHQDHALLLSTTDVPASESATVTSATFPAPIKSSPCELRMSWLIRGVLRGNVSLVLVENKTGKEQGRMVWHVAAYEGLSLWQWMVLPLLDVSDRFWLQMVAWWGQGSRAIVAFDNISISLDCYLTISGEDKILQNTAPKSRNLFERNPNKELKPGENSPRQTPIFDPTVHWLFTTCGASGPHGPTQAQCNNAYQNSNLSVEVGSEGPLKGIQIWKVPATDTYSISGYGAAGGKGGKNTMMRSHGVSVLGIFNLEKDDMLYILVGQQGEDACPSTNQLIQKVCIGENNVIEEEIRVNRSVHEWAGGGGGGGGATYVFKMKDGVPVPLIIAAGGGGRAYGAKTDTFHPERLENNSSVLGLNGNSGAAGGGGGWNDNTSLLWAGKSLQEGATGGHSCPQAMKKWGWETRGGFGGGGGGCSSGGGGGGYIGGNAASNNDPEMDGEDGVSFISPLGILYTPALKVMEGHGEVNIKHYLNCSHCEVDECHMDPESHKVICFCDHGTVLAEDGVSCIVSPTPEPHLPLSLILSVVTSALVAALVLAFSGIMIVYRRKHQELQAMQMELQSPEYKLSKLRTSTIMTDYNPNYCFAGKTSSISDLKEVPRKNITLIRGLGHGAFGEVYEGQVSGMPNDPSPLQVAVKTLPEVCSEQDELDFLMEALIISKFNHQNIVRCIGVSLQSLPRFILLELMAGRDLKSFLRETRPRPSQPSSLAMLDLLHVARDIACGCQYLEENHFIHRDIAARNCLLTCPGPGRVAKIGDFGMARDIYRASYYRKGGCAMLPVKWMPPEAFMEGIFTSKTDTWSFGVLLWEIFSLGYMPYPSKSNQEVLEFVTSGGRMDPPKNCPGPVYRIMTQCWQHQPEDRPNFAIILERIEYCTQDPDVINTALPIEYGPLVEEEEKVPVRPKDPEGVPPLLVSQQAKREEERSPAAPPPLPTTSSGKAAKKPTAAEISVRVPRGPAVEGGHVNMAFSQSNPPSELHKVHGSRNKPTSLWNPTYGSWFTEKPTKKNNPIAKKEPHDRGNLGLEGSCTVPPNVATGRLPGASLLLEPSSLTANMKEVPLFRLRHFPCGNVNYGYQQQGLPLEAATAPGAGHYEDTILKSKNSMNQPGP
Excerpt: The following method was used to determine the inhibition degrees of the compounds of the present invention on the activities of recombinant human ALK(G1202R) and ALK(L1196M, G1202R) kinases in vitro. In this method, HTRF®KinEASE-TK tyrosine kinase kit (article No. 62TK0PEB) of Cisbio company was used, the principle of the kit was based on time-resolved fluorescence resonance energy transfer (TF-FRET), and the inhibitions of the compounds on the activities of the ALK(G1202R) and ALK(L1196M, G1202R) kinases were reflected by determining a phosphorylation degree of a biotinylated polypeptide substrate mediated by ALK kinase. For detailed experimental operation, please refer to the kit instruction. […]
The experimental flow was briefly described as follows: a test compound was first dissolved in DMSO to prepare a storage solution, and then diluted in gradient with a buffer provided in the kit. […] An ATP Km value concentration of each ALK protein was determined by using an ATP solution diluted in gradient (Sangon Biotech (Shanghai) Co., Ltd., A600311). […] After incubation, fluorescence intensity values of each well at an excitation wavelength of 304 nm, and emission wavelengths of 620 nm and 665 nM were determined in a TF-FRET mode on a microplate reader, and the fluorescence intensity ratio 665/620 of each hole was calculated. […]

Row | SMILES | IC50 [1] [nM] | IC50 (ALK(G1202R)) [nM]
1 | C[C@H]1Nc2ccn3ncc(c3n2)C(=O)NC[C@@]2(C)Cc3cc(F)cc1c3O2 [Example 8, (3R,11R)-6-fluoro-3,11-dimethyl-10-oxa-2,13,17,1 8,21-pentaazapentacyclo[13.5.2.1^8,11.0^4,9.0^18,22]tric osa-1(21),4,6,8,15(22),16,19-heptaen-14-one] | 164 | 13.2
2 | C[C@H]1Nc2ccn3nc(N)c(c3n2)C(=O)NC[C@@]2(C)Cc3cc(F)cc1c3O2 [Example 25, (3R,11R)-16-amino-6-fluoro-3,11-dimethyl-10-oxa-2,13,17,18,21-pentaazapentacyclo[13.5.2.1^8,11.0^4,9. 0^18,22]tricosa-1(21),4,6,8,15(22),16,19-heptaen-14-one] |  | 13.6
